The conditions of data set [1]: relative to benzoapyrene; Nisbet and Lagoy 1992; cited from earlier work.
In a further data set the test system is Daphnia magna. The note with it: chronic toxicity data, PAN Pesticide Database and EPA EcoTox Database; cited from earlier work.
A further data set deals with Mussel. The note with it: chronic toxicity data, PAN Pesticide Database and EPA EcoTox Database; cited from earlier work.
The subject of another data set is Barbel fish. The settings on record: chronic toxicity data, PAN Pesticide Database and EPA EcoTox Database; cited from earlier work.
Data set [2] deals with 95% of species in the protected water ecological system. In words: Calculation of HC5 from log-transformed NOEC data. The note with it: HC5=exp(Xm-KLSm), six species, KL 1.81. An excerpt:
(3) calculating benzoapyrene concentration values HC5 of 95% of species in the protected water ecological system: i.e., performing logarithmic transformation on the toxicity data and applying a formula HC5=exp(Xm−KLSm)′ to calculate, wherein m is the number of species, Xm means the arithmetic mean value of the toxicity data of the m species after the logarithmic transformation; Sm means the standard deviation of the toxicity data of the m species after the logarithmic transformation; and KL is a regulation factor, obtained from literature;
(3) Calculating the benzoapyrene concentration values HC5 of 95% of species in the protected water ecological system: logarithmic transformation is performed on the toxicity data in Table 1 to obtain that the arithmetic mean value Xm 3.77 ug/L and the standard deviation Sm 4.95 ug/L, and calculation is conducted using a formula HC5=exp(Xm−KLSm)i, wherein the regulation factor KL is 1.81 (from published literature: Aldenberg and Slob, Confidence limits for hazardous concentrations based on logistically distributed NOEC toxicity data, 1991), and the HC5 value is obtained as 0.0056 ug/L.

The subject of another data set is Chironomidae. The settings on record: chronic toxicity data, PAN Pesticide Database and EPA EcoTox Database; cited from earlier work.
For a further data set, the system named is Green algae. The settings on record: chronic toxicity data, PAN Pesticide Database and EPA EcoTox Database; cited from earlier work.
Data set [3] relates to water ecological system of the lake. In words: Ecological risk quotient, Monte Carlo sampling (10,000 times). The note with it: single pollutant, water body of the lake. From the text: (5) calculating ecological risk quotient values RQi of specific polycyclic aromatic hydrocarbon pollutants: calculating according to a formula
[formula] wherein ECi is the environmental concentration of an i^th polycyclic aromatic hydrocarbon pollutant, TEFi is a toxic equivalency factor of the i^th polycyclic aromatic hydrocarbon pollutant relative to the benzoapyrene, and a concrete numerical value is from literature, and HC5 is the benzoapyrene concentration values of 95% of species in the protected water ecological system; conducting random sampling for 10,000 times using a Monte Carlo sampling method according to the concentration distribution characteristics of different polycyclic aromatic hydrocarbons; and drawing cumulative probability distribution curves of the ecological risk quotient values of each polycyclic aromatic hydrocarbon pollutant according to the Monte Carlo sampling result, and analyzing the probability that the risk quotient values thereof RQi are no less than one; and
(6) calculating the total ecological risk quotient value RQt of each polycyclic aromatic hydrocarbon pollutant: calculating according to a formula […]

The next data set has as its system Frog. The settings on record: chronic toxicity data, PAN Pesticide Database and EPA EcoTox Database; cited from earlier work.

Consider `c1cc2c3c(cccc3c1)CC2` [Ace], for which the Toxic equivalency factor in data set [1] is on record as 0.001.
As for `C1=Cc2cccc3cccc1c23` [Acy], in [1], the Toxic equivalency factor is listed as 0.001.
For the molecule `c1ccc2cc3ccccc3cc2c1` [Ant, anthracene], the Toxic equivalency factor in [1] is 0.01.
Consider `c1ccc2c(c1)cc1ccc3cccc4ccc2c1c34` [B[a]P, benzoapyrene], for which the NOEC in the data set on Daphnia magna was 0.02 µg/L; in the data set on Mussel, 500 µg/L; with Barbel fish, 54.2 µg/L; in the data set with Chironomidae it was 5 µg/L; in the data set on Green algae, 250000 µg/L; in the data set with Frog, 10 µg/L. For the same molecule, in data set [2], the “HC5 (concentration value of 95% of species in the protected water ecological system)” value is given as 0.0056 ug/L. Moreover, the “probability of the risk quotient value RQi greater than or equal to one” value in data set [3] came to 54.4%. In addition, the Toxic equivalency factor in [1] is reported as 1.
On to `c1ccc2c(c1)-c1cccc3c1c-2cc1ccccc13` [B[b]F], for which the Toxic equivalency factor in data set [1] is listed as 0.1.
Turning to `c1cc2ccc3ccc4ccc5cccc6c(c1)c2c3c4c56` [B[ghi]P], in [1], the Toxic equivalency factor was 0.01.
With `c1ccc2cc3c(cc2c1)-c1cccc2cccc-3c12` [B[k]F], the Toxic equivalency factor in data set [1] is on record as 0.1.
In the case of `c1ccc2c(c1)ccc1c3ccccc3ccc21` [Chr], in data set [1], the Toxic equivalency factor is listed as 0.01.
Turning to `c1ccc2c(c1)ccc1cc3c(ccc4ccccc43)cc12` [DBA], the “probability of the risk quotient value RQi greater than or equal to one” value in [3] came out at 61.8%. Besides, in [1], the Toxic equivalency factor was 1.
Turning to `c1ccc2c(c1)-c1ccc3ccc4cccc5cc-2c1c3c45` [Ind], the Toxic equivalency factor in [1] was 0.1.
Take `c1ccc2ccccc2c1` [Nap]: the Toxic equivalency factor in [1] is 0.001.

The record behind these values is patent publication US10156556B2, “Method for determining ecological risks of polycyclic aromatic hydrocarbon in water body” (priority 2013, dated 2018).
